Key:
Type in all cases: cell-based
[1] = molecular target: T1, GAL-hERRa (human ERRα ligand binding domain fused to GAL4 DNA binding domain) (Homo sapiens, UniProt P11474); test: GAL4 reporter transactivation assay in CV-1 cells, GAL-hERRa; details: for Fold activation, GAL-hERRa + PGC-1a / Fold activation, GAL-hERRa: CV-1; for Fold activation, GAL-hERRa + PGC-1a: reporter 0.42:vector 0.00875:PGC-1a 0.035; for Fold activation, GAL-hERRa: reporter 0.42:vector 0.00875, no PGC-1a; for Activation of ERRα: in the presence of PGC-1a
T1 construct: expressed in transfected cells; host or cells: CV-1
T1 sequence (P11474 193-421 limits assumed): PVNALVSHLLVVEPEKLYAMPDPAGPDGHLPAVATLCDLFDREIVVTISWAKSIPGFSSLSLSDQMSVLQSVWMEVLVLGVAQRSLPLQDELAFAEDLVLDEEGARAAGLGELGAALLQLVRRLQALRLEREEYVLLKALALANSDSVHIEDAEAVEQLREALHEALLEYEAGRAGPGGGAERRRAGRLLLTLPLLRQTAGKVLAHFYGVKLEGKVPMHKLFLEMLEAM

[2] = molecular target: T2, GAL-L-hERRb (human ERRβ ligand binding domain fused to GAL4 DNA binding domain) (Homo sapiens, UniProt O95718); test: GAL4 reporter transactivation assay in CV-1 cells, GAL-L-hERRb; details: for Fold activation, GAL-L-hERRb + PGC-1a / Fold activation, GAL-L-hERRb: CV-1; for Fold activation, GAL-L-hERRb + PGC-1a: reporter 0.42:vector 0.00875:PGC-1a 0.035; for Fold activation, GAL-L-hERRb: reporter 0.42:vector 0.00875, no PGC-1a; for Activation of ERRβ: in the presence of PGC-1a
T2 construct: expressed in transfected cells; host or cells: CV-1
T2 sequence (O95718 208-432 limits assumed): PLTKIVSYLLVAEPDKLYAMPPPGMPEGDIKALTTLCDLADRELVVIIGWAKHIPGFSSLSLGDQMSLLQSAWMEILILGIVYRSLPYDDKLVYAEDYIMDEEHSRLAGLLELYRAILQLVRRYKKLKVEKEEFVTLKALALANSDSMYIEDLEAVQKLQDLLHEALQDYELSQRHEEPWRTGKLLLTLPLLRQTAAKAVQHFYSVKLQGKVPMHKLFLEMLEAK

[3] = molecular target: T3, GAL-mERRg (mouse ERRγ ligand binding domain fused to GAL4 DNA binding domain) (Mus musculus, UniProt P62509); test: GAL4 reporter transactivation assay in CV-1 cells, GAL-mERRg; details: for Fold activation, GAL-mERRg + PGC-1a / Fold activation, GAL-mERRg: CV-1; for Fold activation, GAL-mERRg + PGC-1a: reporter 0.42:vector 0.00875:PGC-1a 0.035; for Fold activation, GAL-mERRg: reporter 0.42:vector 0.00875, no PGC-1a; for Activation of ERRγ: in the presence of PGC-1a
T3 construct: expressed in transfected cells; host or cells: CV-1
T3 sequence (P62509 233-457 limits assumed): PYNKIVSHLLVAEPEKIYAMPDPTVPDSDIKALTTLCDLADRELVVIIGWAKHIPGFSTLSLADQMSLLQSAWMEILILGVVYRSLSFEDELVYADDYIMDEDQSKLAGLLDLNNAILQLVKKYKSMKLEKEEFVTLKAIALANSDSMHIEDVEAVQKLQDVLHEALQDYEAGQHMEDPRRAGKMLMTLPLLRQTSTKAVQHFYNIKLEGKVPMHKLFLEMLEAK

[4] = molecular target: T4, human ERα (Homo sapiens, UniProt P03372); test: ERE-TK-luc reporter transactivation assay in CV-1 cells, full-length hERa; details: for Fold Activation, ERE-TK-luc, hERa: Table 7, CV-1, drug conc 30 μM; for Activation of ERa: specificity for ERRs
T4 construct: Human ERα and ERβ were examined as full-length proteins using an estrogen receptor responsive reporter construct; expressed in transfected cells; host or cells: CV-1
T4 sequence (P03372 1-595): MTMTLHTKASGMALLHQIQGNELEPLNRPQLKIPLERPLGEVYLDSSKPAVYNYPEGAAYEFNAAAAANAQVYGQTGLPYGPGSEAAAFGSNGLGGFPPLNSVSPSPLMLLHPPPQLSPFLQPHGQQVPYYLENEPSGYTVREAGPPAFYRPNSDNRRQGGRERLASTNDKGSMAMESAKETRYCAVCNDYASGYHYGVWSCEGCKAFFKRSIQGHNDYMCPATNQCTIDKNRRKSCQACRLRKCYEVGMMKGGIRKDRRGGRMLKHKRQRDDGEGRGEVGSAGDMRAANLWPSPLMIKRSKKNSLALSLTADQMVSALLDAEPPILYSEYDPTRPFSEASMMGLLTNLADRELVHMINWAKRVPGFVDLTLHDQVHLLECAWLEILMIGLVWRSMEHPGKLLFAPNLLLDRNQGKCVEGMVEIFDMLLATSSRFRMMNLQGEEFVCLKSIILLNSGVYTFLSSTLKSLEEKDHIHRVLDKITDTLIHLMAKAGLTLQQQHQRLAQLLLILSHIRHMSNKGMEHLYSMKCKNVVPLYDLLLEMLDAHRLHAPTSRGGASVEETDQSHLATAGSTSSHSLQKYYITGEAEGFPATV
Method: Human ERα and ERβ were examined as full-length proteins using an estrogen receptor responsive reporter construct.
Suitable reporter gene constructs are well known to skilled workers in the fields of biochemistry and molecular biology. […] Other vectors known in the art can be used in the methods of the present invention.
CV-1 cells for the activation assays were grown in Dulbecco's modified Eagle's medium supplemented with 10% resin charcoal-stripped fetal bovine serum, 50 U/ml penicillin G and 50 μg/ml streptomycin sulfate (DMEM-FBS) at 37° C. in 5% CO2. One day prior to transfection, cells were plated to 50-80% confluence using phenol red free DMEM-FBS.

## Cc1cccc(C=NNC(=O)c2ccc(O)cc2)c1 [DY159, 4-Hydroxy-benzoic acid (3-methyl-benzylidene)-hydrazide]
[1]; 1 μM
  Fold activation, GAL-hERRa + PGC-1a: 1.18 fold
  Fold activation, GAL-hERRa: 1.03 fold
[1]; 3 μM (first 3 μM column)
  Fold activation, GAL-hERRa + PGC-1a: 1.69 fold
  Fold activation, GAL-hERRa: 1.41 fold
[1]; 3 μM (second 3 μM column)
  Fold activation, GAL-hERRa + PGC-1a: 1.55 fold
  Fold activation, GAL-hERRa: 1.23 fold
[1]; 10 μM
  Fold activation, GAL-hERRa + PGC-1a: 2.02 fold
  Fold activation, GAL-hERRa: 1.64 fold
[1]; 30 μM
  Fold activation, GAL-hERRa + PGC-1a: 2.61 fold
  Fold activation, GAL-hERRa: 2.41 fold
[1]
  Activation of ERRα: can activate
[2]; 1 μM
  Fold activation, GAL-L-hERRb + PGC-1a: 1.38 fold
  Fold activation, GAL-L-hERRb: 1.29 fold
[2]; 3 μM (first 3 μM column)
  Fold activation, GAL-L-hERRb + PGC-1a: 1.79 fold
  Fold activation, GAL-L-hERRb: 1.25 fold
[2]; 3 μM (second 3 μM column)
  Fold activation, GAL-L-hERRb + PGC-1a: 1.47 fold
  Fold activation, GAL-L-hERRb: 0.98 fold
[2]; 10 μM
  Fold activation, GAL-L-hERRb + PGC-1a: 1.89 fold
  Fold activation, GAL-L-hERRb: 1.33 fold
[2]; 30 μM
  Fold activation, GAL-L-hERRb + PGC-1a: 2.45 fold
  Fold activation, GAL-L-hERRb: 1.36 fold
[2]
  Activation of ERRβ: can activate
[3]; 1 μM
  Fold activation, GAL-mERRg + PGC-1a: 1.16 fold
  Fold activation, GAL-mERRg: 1.39 fold
[3]; 3 μM (first 3 μM column)
  Fold activation, GAL-mERRg + PGC-1a: 1.45 fold
  Fold activation, GAL-mERRg: 1.28 fold
[3]; 3 μM (second 3 μM column)
  Fold activation, GAL-mERRg + PGC-1a: 1.80 fold
  Fold activation, GAL-mERRg: 1.22 fold
[3]; 10 μM
  Fold activation, GAL-mERRg + PGC-1a: 2.70 fold
  Fold activation, GAL-mERRg: 1.36 fold
[3]; 30 μM
  Fold activation, GAL-mERRg + PGC-1a: 2.56 fold
  Fold activation, GAL-mERRg: 1.01 fold
[3]
  Activation of ERRγ: can activate
[4]
  Fold Activation, ERE-TK-luc, hERa: 1.59 fold
  Activation of ERa: do not activate

## O=C(NN=Cc1ccccc1)c1ccc(O)cc1 [DY162, 4-Hydroxy-benzoic acid benzylidene-hydrazide]
[1]; 0.3 μM
  Fold activation, GAL-hERRa + PGC-1a: 1.26 fold
  Fold activation, GAL-hERRa: 0.77 fold
[1]; 1 μM
  Fold activation, GAL-hERRa + PGC-1a: 1.22 fold
  Fold activation, GAL-hERRa: 0.86 fold
[1]; 3 μM (first 3 μM column)
  Fold activation, GAL-hERRa + PGC-1a: 2.11 fold
  Fold activation, GAL-hERRa: 0.89 fold
[1]; 3 μM (second 3 μM column)
  Fold activation, GAL-hERRa + PGC-1a: 1.93 fold
  Fold activation, GAL-hERRa: 1.51 fold
[1]; 10 μM
  Fold activation, GAL-hERRa + PGC-1a: 2.18 fold
  Fold activation, GAL-hERRa: 1.82 fold
[1]; 30 μM
  Fold activation, GAL-hERRa + PGC-1a: 2.36 fold
  Fold activation, GAL-hERRa: 2.03 fold
[1]
  Activation of ERRα: can activate
[2]; 0.3 μM
  Fold activation, GAL-L-hERRb + PGC-1a: 0.77 fold
  Fold activation, GAL-L-hERRb: 1.09 fold
[2]; 1 μM
  Fold activation, GAL-L-hERRb + PGC-1a: 0.78 fold
  Fold activation, GAL-L-hERRb: 1.05 fold
[2]; 3 μM (first 3 μM column)
  Fold activation, GAL-L-hERRb + PGC-1a: 1.06 fold
  Fold activation, GAL-L-hERRb: 0.87 fold
[2]; 3 μM (second 3 μM column)
  Fold activation, GAL-L-hERRb + PGC-1a: 1.65 fold
  Fold activation, GAL-L-hERRb: 0.96 fold
[2]; 10 μM
  Fold activation, GAL-L-hERRb + PGC-1a: 1.79 fold
  Fold activation, GAL-L-hERRb: 1.57 fold
[2]; 30 μM
  Fold activation, GAL-L-hERRb + PGC-1a: 2.61 fold
  Fold activation, GAL-L-hERRb: 1.48 fold
[2]
  Activation of ERRβ: can activate
[3]; 0.3 μM
  Fold activation, GAL-mERRg + PGC-1a: 0.92 fold
  Fold activation, GAL-mERRg: 1.04 fold
[3]; 1 μM
  Fold activation, GAL-mERRg + PGC-1a: 1.06 fold
  Fold activation, GAL-mERRg: 0.89 fold
[3]; 3 μM (first 3 μM column)
  Fold activation, GAL-mERRg + PGC-1a: 1.53 fold
  Fold activation, GAL-mERRg: 0.92 fold
[3]; 3 μM (second 3 μM column)
  Fold activation, GAL-mERRg + PGC-1a: 1.63 fold
  Fold activation, GAL-mERRg: 1.40 fold
[3]; 10 μM
  Fold activation, GAL-mERRg + PGC-1a: 2.45 fold
  Fold activation, GAL-mERRg: 1.88 fold
[3]; 30 μM
  Fold activation, GAL-mERRg + PGC-1a: 2.46 fold
  Fold activation, GAL-mERRg: 1.59 fold
[3]
  Activation of ERRγ: can activate
[4]
  Fold Activation, ERE-TK-luc, hERa: 1.74 fold
  Activation of ERa: do not activate
